{"source": "patent US11865125B2", "about": "“APKC inhibitors and methods of treating a neurodegenerative disease or disorder” (UNIVERSITY OF SOUTH FLORIDA, priority 2016, dated 2024)", "key": {"aPKC [1]": {"target": "T1, aPKC (Homo sapiens, UniProt P41743)", "T1 sequence (P41743 2-596)": "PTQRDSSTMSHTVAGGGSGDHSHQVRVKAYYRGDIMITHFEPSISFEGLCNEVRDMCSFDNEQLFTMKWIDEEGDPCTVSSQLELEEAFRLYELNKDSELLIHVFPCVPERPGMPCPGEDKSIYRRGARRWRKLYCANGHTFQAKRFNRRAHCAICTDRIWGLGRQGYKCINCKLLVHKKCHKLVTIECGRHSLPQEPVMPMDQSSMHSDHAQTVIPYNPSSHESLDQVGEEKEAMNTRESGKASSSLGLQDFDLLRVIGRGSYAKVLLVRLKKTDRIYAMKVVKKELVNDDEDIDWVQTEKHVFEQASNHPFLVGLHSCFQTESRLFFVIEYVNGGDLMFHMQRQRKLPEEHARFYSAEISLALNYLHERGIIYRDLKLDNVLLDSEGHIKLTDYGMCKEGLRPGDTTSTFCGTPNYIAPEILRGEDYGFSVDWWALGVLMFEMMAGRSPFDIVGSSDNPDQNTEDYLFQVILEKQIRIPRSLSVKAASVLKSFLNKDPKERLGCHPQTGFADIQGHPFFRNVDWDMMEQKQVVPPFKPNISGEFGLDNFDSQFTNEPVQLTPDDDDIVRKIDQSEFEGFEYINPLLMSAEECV", "assay": "aPKC activity in LA1-5s neuroblastoma cells", "assay_type": "cell-based", "set-up": "endogenous in cells; host or cells: LA1-5s human neuroblastoma cells"}, "[2]": {"assay": "serum insulin levels / hyperinsulinemia in insulin-resistant mice", "assay_type": "in vivo, mouse", "conditions": "Het-MλKO mice", "source_text": "(§1) Mouse Studies. Brain samples were obtained from normal and insulin-resistant mice and monkeys used previously, and includes mice originally used in studies of insulin signaling and resistance in liver: (a) 4-6 month old C57Bl/6 mice used in studies of high-fat-feeding [USF Vivarium] [6]; 4-6 month-old male C57Bl/6 ob/ob and lean ob+ mice (Jackson Labs, Bar Harbor, Maine); and (c) 10-12 month-old C57Bl/6 Het-MλKO mice [USF Vivarium] [8]. […] Where indicated normal mice were given a single SC injection of saline or saline containing 1.5 mg/kg ICAPP to follow time-related alterations in brain signaling factors. Where indicated, mice were treated intraperitoneally (IP) with insulin (1 U/kg body weight) or vehicle 15-min before euthanization by administration of Xylazine/Ketamine, followed by whole body perfusion with phosphate-buffered saline and rapid removal of brain and other tissues.\n(§2) Where indicated, mice were randomly treated with insulin (1 unit/kg/bw i.p.) 15 min before being euthanized by administration of xylazine/ketamine, followed by whole-body perfusion with PBS and rapid removal of brain and other tissues."}, "Akt": {"system": "Akt", "assay": "brain Akt phosphorylation/activity in mice", "assay_type": "in vivo, mouse", "source_text": "as §1\nTissue Preparations. As described, mouse brains were hemisected sagittally, and one-half was frozen in liquid N2, stored at −80° C., and samples thereof were homogenized in buffer containing 0.25M sucrose, 20 mM Tris/HCl (pH, 7.5), 2 mmol/l EGTA, 2 mM EDTA, 1 mM phenlysulfonoylfluoride (PMSF), 20 μg/ml leupeptin, 10 μg/ml aprotinin, 2 mM Na4P2O7, 2 mM Na3VO4, 2 mM NaF, and 1 μM microcystin, and then supplemented with 1% TritonX-100, 0.6% Nonidet and 150 mM NaCl.\n(§3) Western Analyses. As described, Western analyses were conducted with rabbit antisera or mouse monoclonal antibodies (mMab), using: anti-aPKC (Santa Cruz Biotechnologies, Santa Cruz, CA); anti-phospho-threonine-560/555-PKC-ζ/λ/ι (Invitrogen, Carlsbad, CA); anti-p-serine-256-FoxO1 and anti-FoxO1 (Abnova, Walnut, CA); anti-Akt (mMab), anti-phospho-serine-473-Akt, anti-phospho-serine-9-GSK3P anti-GSK313, anti-phospho-serine-253-FoxO3a, anti-FoxO3a, anti-phospho-serine-256-FoxO1, anti-phospho-serine-193-FoxO4; anti-FoxO1, anti-phospho-serine-2448-mTOR, anti-mTOR, anti-β-amyloid (anti-5-10 kDa-Aβ1-40/42) and anti-amyloid precursor protein (anti-120 kDa-APP) (Cell Signaling Technologies, Danvers, MA); and anti-phospho-serine-202-tau, anti-phospho-threonine-231-tau (Gene Tex, Irvine, CA). Samples from experimental groups were compared on the same blots, and routinely checked with loading controls. Note that: insulin-sensitive 70 kDa aPKC is largely PKC-ζ in mouse brain and orthologous PKC-ι (98% aa homology) in monkey and other primate brains; brain PKC-ζ exists largely as a 50 kDa moiety that, lacking a regulatory domain, is constitutively-active and unresponsive to insulin.\nas §2"}, "phospho-thr-231-tau": {"system": "phospho-thr-231-tau", "assay": "phospho-thr-231-tau levels in LA1-5s neuroblastoma cells", "assay_type": "cell-based, human", "conditions": "LA1-5s cells", "description": "(§4) Shown here are Mean±SEM (N=4) values relative to the mean initial basal or insulin-stimulated level of indicated immunoreactive protein/peptide. Asterisks: *, P<0.05; **, P<0.01; ***, P<0.001 (ANOVA).\nas §3"}, "aPKC [3]": {"target": "T1, aPKC", "set-up": "endogenous in cells", "conditions": "previously seen, stated as similar; read-out: IC50, inhibition of aPKC activity in isolated human hepatocytes; cited from earlier work"}, "Aβ1-40/42": {"system": "Aβ1-40/42", "assay": "Aβ1-40/42 levels in LA1-5s neuroblastoma cells", "assay_type": "cell-based, human", "conditions": "LA1-5s cells", "description": "Relative bar values in panel a are mean±SEM of 6 determinations. Asterisks: *, P<0.05; **, P<0.01; ***, P<0.001 (ANOVA). Values in panel b are means of 2-4 determinations.\nas §4, §3"}}, "note": "Entries after “also recorded” stand apart in the source; their conditions may differ. Read-outs that look alike come from different tables or passages of the source.", "data": [{"smiles": "NC(=O)c1ncn([C@@H]2C[C@H](COP(=O)(O)O)[C@@H](O)[C@H]2O)c1N", "note": "[ICAPP]", "values": [{"measurement": "effect on metformin-induced increase in aPKC activity", "setting": "aPKC [1]; LA1-5s cells", "value": "dose-dependently inhibited"}, {"measurement": "IC50", "setting": "aPKC [1]; LA1-5s human neuroblastoma cells, 200 nM insulin, read-out: IC50, inhibition of insulin-stimulated aPKC activity", "value": "1 to 10", "unit": "nM"}, {"measurement": "hyperinsulinemia", "setting": "[2]", "value": "hyperinsulinemia was corrected; also recorded: fully reversed"}, {"measurement": "resting/basal brain Akt activity", "setting": "Akt; Het-MλKO mice, s.c. once daily for 8 days (ICAPP 0.4 mg/kg, ATM 60 mg/kg)", "value": "diminished; also recorded: reductions of resting/basal activities of brain Akt and aPKC, comparable to those seen with ATM treatment"}, {"measurement": "acute insulin activation of brain Akt", "setting": "Akt; Het-MλKO mice, s.c. once daily for 8 days (ICAPP 0.4 mg/kg, ATM 60 mg/kg), insulin 1 U/kg i.p. 15 min", "value": "restored ability of insulin to acutely activate Akt; also recorded: insulin was fully able to fully activate Akt"}, {"measurement": "insulin-stimulated increases in brain Akt activity", "setting": "Akt; normal mice, single s.c. dose of ICAPP 1.5 mg/kg, insulin 1 U/kg i.p. 15 min before killing", "value": "without altering; also recorded: without inhibiting insulin effects on Akt"}, {"measurement": "effect on metformin-induced increase in phospho-thr-231-tau", "setting": "phospho-thr-231-tau", "value": "dose-dependently inhibited"}, {"measurement": "IC50", "setting": "aPKC [3]", "value": "1 to 10", "unit": "nM"}, {"measurement": "effect on metformin-induced increase in Aβ1-40/42", "setting": "Aβ1-40/42", "value": "dose-dependently inhibited"}, {"measurement": "effect on insulin-stimulated Aβ1-40/42 levels", "setting": "Aβ1-40/42; 200 nM insulin", "value": "dose-dependent decreases"}]}]}
